Laboratory results as given in publication PMC8071193, “Dual-Target Compounds against Type 2 Diabetes Mellitus: Proof of Concept for Sodium Dependent Glucose Transporter (SGLT) and Glycogen Phosphorylase (GP) Inhibitors” (Pharmaceuticals, 2021).
Where two headings read alike, the source gives them in different places.

Experiments:
[1] = target: T1, rabbit muscle glycogen phosphorylase b (rmGPb) (Oryctolagus cuniculus, UniProt P00489); test: Glycogen phosphorylase b enzyme kinetic inhibition assay (direction of glycogen synthesis); assay type: biochemical
T1 construct: Glycogen phosphorylase b was isolated from rabbit skeletal muscle; from tissue; host or cells: rabbit skeletal muscle
T1 sequence (P00489 1-843): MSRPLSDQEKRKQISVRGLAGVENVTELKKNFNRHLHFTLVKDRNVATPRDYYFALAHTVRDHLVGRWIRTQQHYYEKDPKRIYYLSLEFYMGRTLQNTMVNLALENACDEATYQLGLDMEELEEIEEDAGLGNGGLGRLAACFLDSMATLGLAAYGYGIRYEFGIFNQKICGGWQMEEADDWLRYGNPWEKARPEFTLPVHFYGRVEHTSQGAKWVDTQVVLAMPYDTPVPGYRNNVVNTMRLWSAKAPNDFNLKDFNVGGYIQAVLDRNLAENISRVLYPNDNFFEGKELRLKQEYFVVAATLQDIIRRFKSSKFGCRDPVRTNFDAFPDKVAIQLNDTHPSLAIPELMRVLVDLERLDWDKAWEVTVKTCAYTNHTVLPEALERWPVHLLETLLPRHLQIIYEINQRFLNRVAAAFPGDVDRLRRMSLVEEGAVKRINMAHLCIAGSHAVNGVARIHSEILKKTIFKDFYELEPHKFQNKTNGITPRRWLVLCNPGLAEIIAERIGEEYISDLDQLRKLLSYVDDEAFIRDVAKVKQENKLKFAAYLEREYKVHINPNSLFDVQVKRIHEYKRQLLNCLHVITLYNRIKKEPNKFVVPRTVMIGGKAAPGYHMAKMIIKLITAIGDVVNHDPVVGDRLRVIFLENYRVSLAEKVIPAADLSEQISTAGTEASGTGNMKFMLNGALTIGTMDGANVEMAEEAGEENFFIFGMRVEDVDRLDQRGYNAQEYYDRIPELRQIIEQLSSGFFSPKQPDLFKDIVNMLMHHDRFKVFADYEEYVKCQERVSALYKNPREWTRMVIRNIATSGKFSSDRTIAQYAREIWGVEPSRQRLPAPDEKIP
From the text: The 2-NBDG (2-deoxy-2-[(7-nitro-2,1,3-benzoxadiazol-4-yl)amino]-D-glucose, cat. 11046) was purchased from Cayman Chemical Company (Ann Arbor, MI, USA). Lentivirus for SLC5A1 and SLC5A2 (NM_000343 for SGLT1, and NM-003041 for SGLT2) were obtained from Origene (Rockville, MD, USA). These expression vectors contain a puromycin resistance gene. […] CyQUANT^TM Cell Proliferation Assay Kit (2036547) was from Invitrogen (Carlsbad, CA, USA). Glycogen phosphorylase b was isolated from rabbit skeletal muscle according to the method of Fischer and Krebs.
Enzyme activity in the direction of glycogen synthesis was assayed. Kinetic data were collected using the muscle phosphorylase b (dephosphorylated, GPb) isoform. […] Enzymatic activities were presented in the form of a double-reciprocal plot (Lineweaver-Burk). The plots were analysed by a non-linear data analysis program. The inhibitor constants (Ki) were determined by secondary plots, replotting the slopes from the Lineweaver-Burk plot against the inhibitor concentrations. The means of standard errors for all calculated kinetic parameters averaged to less than 10% [78, 79].

SGLT1 = target: T2, SGLT1 (Homo sapiens, UniProt P13866); test: SGLT1 inhibition, 2-NBDG glucose uptake in SGLT1-overexpressing TSA201 cells; assay type: cell-based
T2 construct: host or cells: TSA201 (Human Embryonal Kidney) cells, lentiviral transduction, puromycin selection
T2 sequence (P13866 1-664): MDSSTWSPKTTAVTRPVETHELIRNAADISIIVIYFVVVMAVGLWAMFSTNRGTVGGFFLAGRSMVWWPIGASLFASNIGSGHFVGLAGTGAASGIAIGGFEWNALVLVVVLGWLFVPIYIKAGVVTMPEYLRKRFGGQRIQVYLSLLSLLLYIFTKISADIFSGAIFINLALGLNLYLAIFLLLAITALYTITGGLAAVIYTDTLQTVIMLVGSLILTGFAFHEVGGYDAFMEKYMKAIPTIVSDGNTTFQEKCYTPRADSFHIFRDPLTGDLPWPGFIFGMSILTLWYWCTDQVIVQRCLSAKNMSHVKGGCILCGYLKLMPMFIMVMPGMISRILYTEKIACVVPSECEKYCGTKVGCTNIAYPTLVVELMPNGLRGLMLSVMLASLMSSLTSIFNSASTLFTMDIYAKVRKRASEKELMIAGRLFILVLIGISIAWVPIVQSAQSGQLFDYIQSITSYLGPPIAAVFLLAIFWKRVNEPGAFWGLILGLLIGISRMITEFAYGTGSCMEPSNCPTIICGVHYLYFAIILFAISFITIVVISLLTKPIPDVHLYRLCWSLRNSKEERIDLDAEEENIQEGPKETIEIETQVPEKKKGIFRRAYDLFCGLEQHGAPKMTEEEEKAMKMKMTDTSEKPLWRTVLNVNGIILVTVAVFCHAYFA
Procedure: (§1) Cells (100,000 cells, TSA201) were plated into each well of a 24-well plate and incubated overnight at 37 °C. […] Two wells were treated only with hexadimetrine bromide as a control. After 24 h of transfection, the medium was changed to fresh medium without antibiotics. Cells were collected and transferred into T-25 flasks after 3 days. On the fifth day, 10 µg/mL puromycin was added to select only the transfected cells. The nontransfected cells cannot survive this high concentration of antibiotic. To keep up the selection, the medium including 10 µg/mL puromycin was replaced every two days. The cells lived under puromycin pressure until the day of the experiments.
(§2) TSA201 cells (25,000) with and without overexpressed SGLT1 or 2 were put into poly-L-lysine (P5999, Sigma-Aldrich, St. Luis, MO, USA) treated wells of a 96-well plate. The next day, the cells were starved for 1 h with 90 µL glucose-free medium (D5036-10X1L Sigma-Aldrich, St. Luis, MO, USA) (with or without inhibitor). After starving, cells were treated with 100 µM 2-NBDG and incubated for 30 min (again with or without inhibitor). The incubation time of cells with possible inhibitors was 90 min altogether. After incubation, the medium was removed, the wells were washed with PBS twice, lysed with 100 µL lysis buffer (0.1 M KH2PO4 + 1% Triton-x, pH = 11), and stored at -20°C. […] Subsequently, the protein concentration was measured and NBDG uptake was normalized to protein amount.
(§3) After selecting optimal concentrations, each compound was tested at four different concentrations. […] To determine the specific effects of the compounds on SGLT1 or 2, the glucose uptake values in TSA201 cells without SGLT overexpression were subtracted from the values in TSA201 cell overexpressing SGLT. […] All calculations were prepared using the GraphPad Prism software (GraphPad Software, Inc., SanDiego, CA, USA). The data were plotted on a logarithmic scale as a function of inhibitor concentration. The IC50 values were calculated by non-linear regression analysis from sigmoidal dose-response curves. The results of kinetic experiments were calculated from at least three independent experiments. Each experiment contained four parallel samples that were averaged. The standard deviations were calculated based on the average values for the independent experiments.

SGLT2 = target: T3, SGLT2 (Homo sapiens, UniProt P31639); test: SGLT2 inhibition, 2-NBDG glucose uptake in SGLT2-overexpressing TSA201 cells; assay type: cell-based; conditions: for SGLT2 inhibition (in words): TSA201 cells, up to 1000 µM; for factor by which the 2-naphthyl derivative is the stronger inhibitor of SGLT2: comparisons 21a–21b and 24a–24b
T3 construct: host or cells: TSA201 (Human Embryonal Kidney) cells, lentiviral transduction, puromycin selection
T3 sequence (P31639 1-672): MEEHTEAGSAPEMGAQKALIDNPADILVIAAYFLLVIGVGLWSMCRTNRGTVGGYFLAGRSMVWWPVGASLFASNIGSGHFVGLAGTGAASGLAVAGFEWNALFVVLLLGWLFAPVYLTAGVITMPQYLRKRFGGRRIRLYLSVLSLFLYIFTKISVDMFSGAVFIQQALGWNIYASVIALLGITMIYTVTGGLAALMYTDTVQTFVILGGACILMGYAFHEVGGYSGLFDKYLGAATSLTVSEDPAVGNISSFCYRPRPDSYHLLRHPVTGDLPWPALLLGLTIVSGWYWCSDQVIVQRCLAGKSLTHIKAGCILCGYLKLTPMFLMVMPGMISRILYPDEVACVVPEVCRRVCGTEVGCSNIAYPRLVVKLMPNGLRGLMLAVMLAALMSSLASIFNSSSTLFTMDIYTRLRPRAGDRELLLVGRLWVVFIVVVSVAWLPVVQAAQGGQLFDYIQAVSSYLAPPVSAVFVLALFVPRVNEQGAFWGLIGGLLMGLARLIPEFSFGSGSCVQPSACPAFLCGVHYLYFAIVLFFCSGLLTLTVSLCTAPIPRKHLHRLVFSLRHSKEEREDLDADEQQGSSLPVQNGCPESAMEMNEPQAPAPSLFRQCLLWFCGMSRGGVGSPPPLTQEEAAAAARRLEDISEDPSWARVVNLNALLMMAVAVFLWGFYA
Procedure: as §1, §2, §3

[2] = Table 2, NI: no inhibition at 625 µM
[3] = Table 2, TSA-201 cells, NI: no inhibition at 1000 µM, compounds 1-2 used as controls for in-house assay
[4] = Table 3, TSA-201 cells, NI: no inhibition at 1000 µM

SMILES	IC50 [1, 2] [µM]	IC50 (SGLT1) [µM]	IC50 (SGLT2) [µM]	SGLT2 inhibition (in words) (SGLT2)	IC50 (SGLT1; [4]) [µM]	IC50 (SGLT2; [4]) [µM]	also measured
OC[C@H]1O[C@@H](c2nnc(Cc3ccccc3)o2)[C@H](O)[C@@H](O)[C@@H]1O [13a, 5-Benzyl-2-(β-D-glucopyranosyl)-1,3,4-oxadiazole]	> 625	23.7 ± 6.14	2.21 ± 0.58	showed inhibitory effects			
OC[C@H]1O[C@@H](c2nccc(Cc3ccc4ccccc4c3)n2)[C@H](O)[C@@H](O)[C@@H]1O [16d, 2-(β-D-Glucopyranosyl)-4-(2-naphthylmethyl)pyrimidine]	> 625			non-inhibitory			IC50 (SGLT1; [3]): > 1000 µM; IC50 (SGLT2; [3]): > 1000 µM
OC[C@H]1O[C@@H](c2nnc(-c3ccccc3)[nH]2)[C@H](O)[C@@H](O)[C@@H]1O [25a]					125 ± 46.5	15 ± 2.74	
OC[C@H]1O[C@@H](c2nc(Cc3ccccc3)n[nH]2)[C@H](O)[C@@H](O)[C@@H]1O [19a]	> 625	19.6 ± 7.26	71.7 ± 10.6				fold weakening in the SGLT2 inhibition (SGLT2; 19a vs. 10a and 13a): 20-30 fold
OC[C@H]1O[C@@H](c2nc(-c3ccccc3)cs2)[C@H](O)[C@@H](O)[C@@H]1O [23a]					> 1000	> 1000	
OC[C@H]1O[C@@H](n2cc(-c3ccc4ccccc4c3)nn2)[C@H](O)[C@@H](O)[C@@H]1O [21b]					127 ± 21.6	10.3 ± 2.18	factor by which the 2-naphthyl derivative is the stronger inhibitor of SGLT2 (SGLT2): ~ 7
OC[C@H]1O[C@@H](c2nc(Cc3ccccc3)c[nH]2)[C@H](O)[C@@H](O)[C@@H]1O [compound 18, 4(5)-Benzyl-2-(β-D-glucopyranosyl)imidazole]		11.7 ± 2.48	3.57 ± 0.42				inhibition at 625 µM ([1]; Table 2, at 625 µM): 12%; times more effective (SGLT2 inhibition) (SGLT2; compared to 1,2,4-triazole 19a): ~ 20 times
OC[C@H]1O[C@@H](c2nccc(Cc3ccccc3)n2)[C@H](O)[C@@H](O)[C@@H]1O [16a, 4-Benzyl-2-(β-D-glucopyranosyl)pyrimidine]	> 625	18 ± 3.92	17 ± 3.16	inhibitory activity in the micromolar range			
OC[C@H]1O[C@@H](n2cc(Cc3ccccc3)nn2)[C@H](O)[C@@H](O)[C@@H]1O [compound 20]		101 ± 23.5	23.2 ± 1.86				
OC[C@H]1O[C@@H](n2cc(-c3ccccc3)nn2)[C@H](O)[C@@H](O)[C@@H]1O [21a]					167 ± 63.5	67.3 ± 10.9	
OCCn1nc([C@@H]2O[C@H](CO)[C@@H](O)[C@H](O)[C@H]2O)nc1Cc1ccccc1 [19b]	> 625			complete loss of the inhibition			IC50 (SGLT1; [3]): > 1000 µM; IC50 (SGLT2; [3]): > 1000 µM
CCOc1ccc(Cc2cc([C@@H]3O[C@H](CO)[C@@H](O)[C@H](O)[C@H]3O)ccc2Cl)cc1 [compound 2, dapagliflozin, reference compound]							IC50 [1]: > 625 µM
OC[C@H]1O[C@@H](c2nc(-c3ccc4ccccc4c3)c[nH]2)[C@H](O)[C@@H](O)[C@@H]1O [24b, 2-(β-D-glucopyranosyl)-4(5)-(2-naphthyl)-imidazole]					11.9 ± 2.61	3.5 ± 0.88	factor by which the 2-naphthyl derivative is the stronger inhibitor of SGLT2 (SGLT2): ~ 26
OC[C@H]1O[C@@H](c2nc(-c3ccccc3)c[nH]2)[C@H](O)[C@@H](O)[C@@H]1O [24a]					245 ± 42	91.04 ± 0.56	
COc1ccc(Cc2nc([C@@H]3O[C@H](CO)[C@@H](O)[C@H](O)[C@H]3O)no2)cc1 [10b, 3-(β-D-Glucopyranosyl)-5-(4-methoxybenzyl)-1,2,4-oxadiazole]	> 625			complete loss of the inhibition			IC50 (SGLT1; [3]): > 1000 µM; IC50 (SGLT2; [3]): > 1000 µM
OC[C@H]1O[C@@H](c2nccc(Cc3ccc(Cl)cc3)n2)[C@H](O)[C@@H](O)[C@@H]1O [16c, 4-(4-Chlorobenzyl)-2-(β-D-glucopyranosyl)pyrimidine]	> 625			inactive			IC50 (SGLT1; [3]): > 1000 µM; IC50 (SGLT2; [3]): > 1000 µM
OC[C@H]1O[C@@H](c2noc(Cc3ccc(Cl)cc3)n2)[C@H](O)[C@@H](O)[C@@H]1O [10c, 5-(4-Chlorobenzyl)-3-(β-D-glucopyranosyl)-1,2,4-oxadiazole]	> 625			complete loss of the inhibition			IC50 (SGLT1; [3]): > 1000 µM; IC50 (SGLT2; [3]): > 1000 µM
OC[C@H]1O[C@@H](c2noc(Cc3ccccc3)n2)[C@H](O)[C@@H](O)[C@@H]1O [10a, 5-Benzyl-3-(β-D-glucopyranosyl)-1,2,4-oxadiazole]	> 625	20.7 ± 7.66	3.68 ± 0.59	showed inhibitory effects			
OC[C@H]1O[C@@H](c2nc(-c3ccc4ccccc4c3)n[nH]2)[C@H](O)[C@@H](O)[C@@H]1O [25b]					13 ± 2.88	17.7 ± 2.32	
OC[C@H]1O[C@@H](c2nc(-c3ccc4ccccc4c3)cs2)[C@H](O)[C@@H](O)[C@@H]1O [23b]					> 1000	> 1000	
